Values of other authors as cited in paper PMC8513935.
Values belong to the compound of their own block, whether it stands above or below them.

Tests used:
[1] = log P octanol/water from commercial databases, averaged (the ESI); settings: Octanol (wet), 25 C
[2] = experimental, compiled by the authors from the literature (the ESI cites the sources)
[3] = derived by the authors as gas->solvent minus gas->water (a hypothetical dry solvent; the ESI), not a two-phase measurement

log K of transfer, water to solvent [1]: 4.45 log10 K
log K of transfer, gas to solvent ([2]; 2-Methylpropan-1-ol, 25 C): 7.16 log10 K
log K of transfer, gas to solvent ([2]; 2-Methylpropan-2-ol, 25 C): 7.12 log10 K
log K of transfer, gas to solvent ([2]; 3-Methylbutan-1-ol, 25 C): 7.28 log10 K
log K of transfer, gas to solvent ([2]; Acetonitrile, 25 C): 7.66 log10 K
log K of transfer, gas to solvent ([2]; Benzene, 25 C): 8.38 log10 K
log K of transfer, gas to solvent ([2]; Butan-1-ol, 25 C): 7.42 log10 K
log K of transfer, gas to solvent ([2]; Butan-2-ol, 25 C): 7.26 log10 K
log K of transfer, gas to solvent ([2]; Butanone, 25 C): 8.32 log10 K
log K of transfer, gas to solvent ([2]; Butyronitrile, 25 C): 8.17 log10 K
log K of transfer, gas to solvent ([2]; CCl4, 25 C): 8.17 log10 K
log K of transfer, gas to solvent ([2]; Chlorobenzene, 25 C): 8.45 log10 K
log K of transfer, gas to solvent ([2]; Chloroform, 25 C): 8.4 log10 K
log K of transfer, gas to solvent ([2]; Cyclohexane, 25 C): 7.52 log10 K
log K of transfer, gas to solvent ([2]; Cyclohexanone, 25 C): 8.53 log10 K
log K of transfer, gas to solvent ([2]; Decan-1-ol, 25 C): 7.71 log10 K
log K of transfer, gas to solvent ([2]; Di-n-butyl ether, 25 C): 7.79 log10 K
log K of transfer, gas to solvent ([2]; Dichloromethane, 25 C): 8.62 log10 K
log K of transfer, gas to solvent ([2]; Diethyl Ether, 25 C): 7.97 log10 K
log K of transfer, gas to solvent ([2]; Ethanol, 25 C): 7.62 log10 K
log K of transfer, gas to solvent ([2]; Heptan-1-ol, 25 C): 7.58 log10 K
log K of transfer, gas to solvent ([2]; Hexadecane, 25 C): 7.56 log10 K
log K of transfer, gas to solvent ([2]; Hexan-1-ol, 25 C): 7.53 log10 K
log K of transfer, gas to solvent ([2]; Hexane, 25 C): 7.45 log10 K
log K of transfer, gas to solvent ([2]; Methanol, 25 C): 7.25 log10 K
log K of transfer, gas to solvent ([2]; Octan-1-ol, 25 C): 7.55 log10 K
log K of transfer, gas to solvent ([2]; Pentan-1-ol, 25 C): 7.46 log10 K
log K of transfer, gas to solvent ([2]; Propan-1-ol, 25 C): 7.36 log10 K
log K of transfer, gas to solvent ([2]; Propan-2-ol, 25 C): 7.36 log10 K
log K of transfer, gas to solvent ([2]; Propanone, 25 C): 8.22 log10 K
log K of transfer, gas to solvent ([2]; Propionitrile, 25 C): 8.07 log10 K
log K of transfer, gas to solvent ([2]; Tetrahydrofuran, 25 C): 8.71 log10 K
log K of transfer, gas to solvent ([2]; Toluene, 25 C): 8.3 log10 K
log K of transfer, gas to solvent ([2]; Water, 25 C): 3.03 log10 K
log K of transfer, water to solvent ([3]; 2-Methylpropan-1-ol, 25 C): 4.13 log10 K
log K of transfer, water to solvent ([3]; 2-Methylpropan-2-ol, 25 C): 4.09 log10 K
log K of transfer, water to solvent ([3]; 3-Methylbutan-1-ol, 25 C): 4.25 log10 K
log K of transfer, water to solvent ([3]; Acetone, 25 C): 5.19 log10 K
log K of transfer, water to solvent ([3]; Acetonitrile, 25 C): 4.63 log10 K
log K of transfer, water to solvent ([3]; Benzene, 25 C): 5.35 log10 K
log K of transfer, water to solvent ([3]; Butan-1-ol, 25 C): 4.39 log10 K
log K of transfer, water to solvent ([3]; Butan-2-ol, 25 C): 4.23 log10 K
log K of transfer, water to solvent ([3]; Butanone, 25 C): 5.29 log10 K
log K of transfer, water to solvent ([3]; Butyronitrile, 25 C): 5.14 log10 K
log K of transfer, water to solvent ([3]; CCl4, 25 C): 5.14 log10 K
log K of transfer, water to solvent ([3]; Chlorobenzene, 25 C): 5.42 log10 K
log K of transfer, water to solvent ([3]; Chloroform, 25 C): 5.37 log10 K
log K of transfer, water to solvent ([3]; Cyclohexane, 25 C): 4.49 log10 K
log K of transfer, water to solvent ([3]; Cyclohexanone, 25 C): 5.5 log10 K
log K of transfer, water to solvent ([3]; Decan-1-ol, 25 C): 4.68 log10 K
log K of transfer, water to solvent ([3]; Di-n-butyl ether, 25 C): 4.76 log10 K
log K of transfer, water to solvent ([3]; Dichloromethane, 25 C): 5.59 log10 K
log K of transfer, water to solvent ([3]; Diethyl Ether, 25 C): 4.94 log10 K
log K of transfer, water to solvent ([3]; Ethanol, 25 C): 4.59 log10 K
log K of transfer, water to solvent ([3]; Heptan-1-ol, 25 C): 4.55 log10 K
log K of transfer, water to solvent ([3]; Hexadecane, 25 C): 4.54 log10 K
log K of transfer, water to solvent ([3]; Hexan-1-ol, 25 C): 4.5 log10 K
log K of transfer, water to solvent ([3]; Hexane, 25 C): 4.42 log10 K
log K of transfer, water to solvent ([3]; Methanol, 25 C): 4.22 log10 K
log K of transfer, water to solvent ([3]; Octan-1-ol(dry), 25 C): 4.52 log10 K
log K of transfer, water to solvent ([3]; Pentan-1-ol, 25 C): 4.43 log10 K
log K of transfer, water to solvent ([3]; Propan-1-ol, 25 C): 4.33 log10 K
log K of transfer, water to solvent ([3]; Propan-2-ol, 25 C): 4.33 log10 K
log K of transfer, water to solvent ([3]; Propionitrile, 25 C): 5.04 log10 K
log K of transfer, water to solvent ([3]; Tetrahydrofuran, 25 C): 5.68 log10 K
log K of transfer, water to solvent ([3]; Toluene, 25 C): 5.27 log10 K
SMILES: c1ccc2cc3ccccc3cc2c1

log K of transfer, water to solvent [1]: 1.51 log10 K
log K of transfer, gas to solvent ([2]; 1,2-Dichloroethane, 25 C): 4.07 log10 K
log K of transfer, gas to solvent ([2]; 2-Methylpropan-1-ol, 25 C): 5.02 log10 K
log K of transfer, gas to solvent ([2]; 2-Methylpropan-2-ol, 25 C): 5.1 log10 K
log K of transfer, gas to solvent ([2]; Benzene, 25 C): 3.74 log10 K
log K of transfer, gas to solvent ([2]; Butan-1-ol, 25 C): 4.96 log10 K
log K of transfer, gas to solvent ([2]; CCl4, 25 C): 3.75 log10 K
log K of transfer, gas to solvent ([2]; Chlorobenzene, 25 C): 3.85 log10 K
log K of transfer, gas to solvent ([2]; Chloroform, 25 C): 4.4 log10 K
log K of transfer, gas to solvent ([2]; Cyclohexane, 25 C): 2.94 log10 K
log K of transfer, gas to solvent ([2]; Decan-1-ol, 25 C): 4.68 log10 K
log K of transfer, gas to solvent ([2]; Hexadecane, 25 C): 3.1 log10 K
log K of transfer, gas to solvent ([2]; Hexan-1-ol, 25 C): 4.9 log10 K
log K of transfer, gas to solvent ([2]; Hexane, 25 C): 3.39 log10 K
log K of transfer, gas to solvent ([2]; Methanol, 25 C): 4.93 log10 K
log K of transfer, gas to solvent ([2]; Octan-1-ol, 25 C): 4.69 log10 K
log K of transfer, gas to solvent ([2]; Pentan-1-ol, 25 C): 4.95 log10 K
log K of transfer, gas to solvent ([2]; Propan-1-ol, 25 C): 4.97 log10 K
log K of transfer, gas to solvent ([2]; Propan-2-ol, 25 C): 5.01 log10 K
log K of transfer, gas to solvent ([2]; Toluene, 25 C): 3.79 log10 K
log K of transfer, gas to solvent ([2]; Water, 25 C): 3.35 log10 K
log K of transfer, water to solvent ([3]; 1,2-Dichloroethane, 25 C): 0.72 log10 K
log K of transfer, water to solvent ([3]; 2-Methylpropan-1-ol, 25 C): 1.67 log10 K
log K of transfer, water to solvent ([3]; 2-Methylpropan-2-ol, 25 C): 1.75 log10 K
log K of transfer, water to solvent ([3]; Benzene, 25 C): 0.39 log10 K
log K of transfer, water to solvent ([3]; Butan-1-ol, 25 C): 1.61 log10 K
log K of transfer, water to solvent ([3]; CCl4, 25 C): 0.4 log10 K
log K of transfer, water to solvent ([3]; Chlorobenzene, 25 C): 0.5 log10 K
log K of transfer, water to solvent ([3]; Chloroform, 25 C): 1.05 log10 K
log K of transfer, water to solvent ([3]; Cyclohexane, 25 C): -0.411 log10 K
log K of transfer, water to solvent ([3]; Decan-1-ol, 25 C): 1.33 log10 K
log K of transfer, water to solvent ([3]; Hexadecane, 25 C): -0.244 log10 K
log K of transfer, water to solvent ([3]; Hexan-1-ol, 25 C): 1.55 log10 K
log K of transfer, water to solvent ([3]; Hexane, 25 C): 0.037 log10 K
log K of transfer, water to solvent ([3]; Methanol, 25 C): 1.58 log10 K
log K of transfer, water to solvent ([3]; Octan-1-ol(dry), 25 C): 1.34 log10 K
log K of transfer, water to solvent ([3]; Pentan-1-ol, 25 C): 1.6 log10 K
log K of transfer, water to solvent ([3]; Propan-1-ol, 25 C): 1.62 log10 K
log K of transfer, water to solvent ([3]; Propan-2-ol, 25 C): 1.66 log10 K
log K of transfer, water to solvent ([3]; Toluene, 25 C): 0.44 log10 K
SMILES: CCCCCO
